Values joined by “and” are separate entries in the source; they are usually repeats but may differ in a detail not shown here. Equal entries are not always repeated. Structures can show the parent of a compound that is named as a salt.

The target in the first assay is T1, human p38 kinase alpha (Homo sapiens, UniProt Q16539).
T1 construct: The coding region of the human p38α cDNA was obtained by PCR-amplification from RNA isolated from the human monocyte cell line THP.1; made in house; host or cells: E. coli DH10B
T1 sequence (Q16539 whole entry): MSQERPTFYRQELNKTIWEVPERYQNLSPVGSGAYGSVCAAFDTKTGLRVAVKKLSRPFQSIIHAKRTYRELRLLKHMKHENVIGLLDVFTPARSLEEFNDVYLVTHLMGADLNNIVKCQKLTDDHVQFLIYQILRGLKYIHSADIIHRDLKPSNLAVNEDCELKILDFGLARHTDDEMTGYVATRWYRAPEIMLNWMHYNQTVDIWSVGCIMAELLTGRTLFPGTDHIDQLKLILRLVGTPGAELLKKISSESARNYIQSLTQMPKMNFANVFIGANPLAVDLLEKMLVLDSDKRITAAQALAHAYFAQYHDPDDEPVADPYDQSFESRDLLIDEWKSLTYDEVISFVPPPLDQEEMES
Briefly: In vitro p38 kinase inhibition analysis (PHAS-I 32P-ATP or EGFRP 33P-ATP format). Format: biochemical. The note with it: Table 1; compounds of Examples 1-28; one of two in vitro assay methods; Hydrochloride Hydrate; read-out: p38α Kinase Inhibition (IC50 in μM). How it is done: The ability of compounds to inhibit human p38 kinase alpha was evaluated using one of two in vitro assay methods. In the first method, activated human p38 kinase alpha phosphorylates a biotinylated substrate, PHAS-I (phosphorylated heat and acid stable protein-insulin inducible), in the presence of gamma ^32P-ATP (^32P-ATP). PHAS-I was biotinylated before the assay, and provided a means of capturing the substrate which was phosphorylated during the assay. p38 Kinase was activated by MKK6. Compounds were tested in 10 fold serial dilutions over the range of 100 μM to 0.001 μM using 1% DMSO. Each concentration of inhibitor was tested in triplicate.
All reactions were carried out in 96 well polypropylene plates. Each reaction well contained 25 mM HEPES pH 7.5, 10 mM magnesium acetate, and 50 μM unlabeled ATP. […] Activated human p38 kinase alpha was used at 1 μg per 50 μl reaction volume, representing a final concentration of 0.3 μM. Gamma ^32P-ATP was used to follow the phosphorylation of PHAS-I. ^32P-ATP has a specific activity of 3000 Ci/mmol, and was used at 1.2 μCi per 50 μl reaction volume. The reaction proceeded either for one hr or overnight at 30° C.
Following incubation, 20 μl of reaction mixture was transferred to a high capacity streptavidin coated filter plate (SAM-streptavidin-matrix, Promega) prewetted with phosphate buffered saline. The transferred reaction mix was allowed to contact the streptavidin membrane of the Promega plate for 1-2 min. […] Filter plates were air dried and 20 μl of scintillant was added. The plates were sealed and counted.
A second assay format was alternatively employed. This assay is based on p38 kinase alpha being induced phosphorylation of EGFRP (epidermal growth factor receptor peptide, a 21 mer) in the presence of ^33P-ATP. Compounds were tested in 10 fold serial dilutions over the range of 100 μM to 0.001 μM in 10% DMSO. Each concentration of inhibitor was tested in triplicate. Compounds were evaluated in 50 μl reaction volumes in the presence of 25 mM HEPES pH 7.5, 10 mM magnesium acetate, 4% glycerol, 0.4% bovine serum albumin, 0.4 mM DTT, 50 μM unlabeled ATP, 25 μg EGFRP (200 μM), and 0.05 uCi gamma ^33P-ATP. Reactions were initiated by addition of 0.09 μg of activated, purified human GST-p38 kinase alpha. Activation was carried out using GST-MKK6 (5:1,p38:MKK6) for one hr at 30° C. in the presence of 50 μM ATP. Following incubation for 60 min at room temperature, the reaction was stopped by addition of 150 μl of AG 1×8 resin in 900 mM sodium formate buffer, pH 3.0 (1 volume resin to 2 volumes buffer). The mixture was mixed three times with pipetting. Afterward, the resin was allowed to settle. A total of 50 μl of clarified solution head volume was transferred from the reaction wells to Microlite-2 plates. 150 μl of Microscint 40 was then added to each well of the Microlite plate, and the plate was sealed, mixed, and counted.
A word on the IC50: it is the concentration that inhibits the measured activity by half. Consider `OC[C@H]1CCCN1[C@H]1CC[C@H](c2[nH]nc(-c3ccc(Cl)cc3)c2-c2ccncn2)CC1` [Example 10, ((2R)-1-{4-[3-(4-chlorophenyl)-4-pyrimidin-4-yl-1H-pyrazol-5yl]cyclohexyl}pyrrolidin-2-yl)methanol Hydrochloride Hydrate], for which the IC50 was 0.0354 µM.

Staying with this assay, now noted: Table 1; compounds of Examples 1-28; one of two in vitro assay methods; Trifluoroacetate; read-out: p38α Kinase Inhibition (IC50 in μM).
Regarding `OC[C@H]1CCCN1[C@H]1CC[C@H](c2[nH]nc(-c3ccc(Cl)cc3)c2-c2ccncn2)CC1` [Example 9, ((2R)-1-{4-[3-(4-chlorophenyl)-4-pyrimidin-4-yl-1H-pyrazol-5-yl]cyclohexyl)pyrrolidin-2-yl)methanol Trifluoroacetate], the IC50 came to 0.0285 µM.

The same assay, now with this note: Table 1; compounds of Examples 1-28; one of two in vitro assay methods; read-out: p38α Kinase Inhibition (IC50 in μM).
`CC(C)(O)[C@H]1CC[C@H](c2[nH]nc(-c3ccc(Cl)cc3)c2-c2ccncn2)CC1` [Example 16, 2-{4-[3-(4-chlorophenyl)-4-pyrimidin-4-yl-1H-pyrazol-5-yl]cyclohexyl)propan-2-ol]: the IC50 came out at 0.0926 µM.

The assay is the same for the next values; noted with them: Table 2; additional pyrazole compounds, Examples 56-169; read-out: p38α Kinase Inhibition (IC50 in μM).
Take `CN(C)CCOc1nccc(-c2c(-c3ccc(Cl)cc3F)n[nH]c2C2CCN(C(=O)CO)CC2)n1` [Example 157]: the IC50 is 1.07 µM and 0.847 µM.

On to `O=C([C@H](O)CO)N1CCC(c2[nH]nc(-c3ccc(Cl)cc3)c2-c2ccncn2)CC1` [Example 63], for which the IC50 is 0.416 µM.

In the case of `O=C(CO)N1CCC(c2[nH]nc(-c3cc(C(F)(F)F)ccc3F)c2-c2ccncn2)CC1` [Example 102], the IC50 came to 0.454 µM.

For `N#Cc1cccc(Oc2nccc(-c3c(-c4ccc(Cl)cc4)n[nH]c3C3CCN(C(=O)CO)CC3)n2)c1` [Example 96], the IC50 was found to be 0.0697 µM.

As to `N#Cc1ccc(Oc2nccc(-c3c(-c4ccc(Cl)cc4)n[nH]c3C3CCN(C(=O)CO)CC3)n2)cc1` [Example 94], the IC50 amounted to 0.108 µM.

In the case of `C[C@H](N[C@H]1CC[C@H](c2[nH]nc(-c3ccc(Cl)cc3)c2-c2ccncn2)CC1)c1ccccc1` [Example 121], the IC50 turned out to be 0.00856 µM.

On to `C[C@H](O)C(=O)N1CCC(c2[nH]nc(-c3cccc(C(F)(F)F)c3F)c2-c2ccncn2)CC1` [Example 112], for which the IC50 was 5.18 µM.

As to `COc1cc(Cl)ccc1-c1n[nH]c(C2CCN(C(=O)COC(C)=O)CC2)c1-c1ccncn1` [Example 77], the IC50 came out at 22.8 µM.

Regarding `CN1CCC(c2[nH]nc(-c3ccc(Cl)cc3F)c2-c2ccnc(NC3CCCC3)n2)CC1` [Example 153], the half-inhibitory concentration (IC50) turned out to be 0.0182 µM.

With `CC(C)(C)OC(=O)N1CCC(c2[nH]nc(-c3ccc(Cl)cc3)c2-c2ccnc(Oc3cccc(C#N)c3)n2)CC1` [Example 134], the IC50 worked out at 1.59 µM.

In the case of `Clc1ccc(-c2n[nH]c(C3CCNCC3)c2-c2ccnc(NC3CCN(Cc4ccccc4)CC3)n2)cc1` [Example 150], the IC50 worked out at 0.034 µM.

Consider `C[C@H](O)C(=O)N1CCC(c2[nH]nc(-c3ccc(Cl)cc3F)c2-c2ccncn2)CC1` [Example 107], for which the IC50 was determined as 0.0777 µM.

In the case of `O=C([C@@H](O)CO)N1CCC(c2[nH]nc(-c3ccc(Cl)cc3)c2-c2ccncn2)CC1` [Example 65], the IC50 was determined as 0.256 µM.

Consider `CN1CCC(c2[nH]nc(-c3ccc(F)c(C(F)(F)F)c3)c2-c2ccnc(NC3CCCC3)n2)CC1` [Example 167], for which the IC50 came out at 0.0063 µM.

`CC(=O)OCC(=O)N1CCC(c2[nH]nc(-c3ccc(Cl)c(Cl)c3)c2-c2ccncn2)CC1` [Example 66]: the IC50 was found to be 0.216 µM.

Take `CC(C)(C)OC(=O)N1CCC(c2[nH]nc(-c3ccc(Cl)cc3)c2-c2ccnc(Oc3ccccc3C#N)n2)CC1` [Example 133]: the IC50 worked out at 0.848 µM.

Consider `CCN1CCN([C@H]2CC[C@H](c3[nH]nc(-c4ccc(Cl)cc4)c3-c3ccncn3)CC2)CC1` [Example 58], for which the IC50 was 0.0649 µM.

As to `O=C(CO)N1CCC(c2[nH]nc(-c3ccc(F)c(F)c3)c2-c2ccncn2)CC1` [Example 60], the IC50 is 0.753 µM.

Turning to `C[C@H](N[C@H]1CC[C@H](c2[nH]nc(-c3ccc(Cl)cc3)c2-c2ccncn2)CC1)c1ccc(F)cc1` [Example 128], the half-maximal inhibitory concentration (IC50) amounted to 0.00576 µM.

Regarding `O=C(CO)N1CCC(c2[nH]nc(-c3cc(Cl)ccc3F)c2-c2ccncn2)CC1` [Example 105], the IC50 came out at 0.247 µM.

Values taken from US20040082551A1, “Novel pyrazoles and their use as p38 kinase inhibitors” (priority 2002, published 2004).
